Laboratory results reported in US6846500B1, “Oral care chewing gums and method of use” (Cadbury Adams USA LLC, priority 1999, dated 2005).

Test: Calcium precipitation on mixing CPP-ACP and sodium bicarbonate; calcium retained on filter by Atomic Absorption
Format: physicochemical, human
Procedure: The in vivo test was done to first determine the release of CPP-ACP. A five person panel chewed a gum containing 1% CPP-ACP. […] CPP-ACP and sodium bicarbonate at these concentration were incubated in a 30 ml pooled human saliva with moderate shaking at 37° C. for 3 minutes to test precipitation upon consumption of the gum and at 1 hour to show how longer contact time would precipitate calcium carbonate. The resultant pH of the incubation solution was approximately 7. The solution was filtered, the retentate was rinsed with deionized H2O to remove any soluble calcium and the result was analyzed for calcium content by Atomic Absorption analysis. As a control an aqueous solution of 30 g of a 0.3% CPP-ACP solution was pass through the filter paper.

Work on O=C([O-])O.[Na+] [NaHCO3, sodium bicarbonate] yielded a Calcium retained (30 g of saliva stored at 37° C. for 3 minutes) of 1.700 mg, a Calcium retained (30 g of saliva stored at 37° C. for 3 minutes, listed as sodium bicarbonate) of 1.7 mg and a Calcium retained (30 g of saliva stored at 37° C. for 1 hour) of 1.600 mg.
